Data: PubChem BioAssay AID248 (DTP/NCI, 2004)
“And” between values parts separate entries of the source, which are not always exact repeats. Identical values can stand only once. Inconclusive results and toxic doses are left out. Cut-off read from the data, not from the text of the source: active = T/C of 150% or more; inactive = T/C below 125%.

Tested on: L1210 leukemia ip in BDF1 mice, survival T/C
Test: NCI In Vivo Anticancer Drug Screen. Data for tumor model L1210 Leukemia (intraperitoneal) in B6D2F1 (BDF1) mice
Settings: endpoint: mean survival time, higher = longer survival
Outline: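 In this screen, tumor-bearing mice given compound are compared to those given vehicle, and their survival values are reported as a treated-to-control quotient.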

[1] = dose: 25.0 mg/kg/injection, schedule: Q01DX009 (ip), vehicle: saline
[2] = dose: 25.0 mg/kg/injection, schedule: Q04DX003 (ip), vehicle: saline
[3] = dose: 75.0 mg/kg/injection, schedule: Q01DX001 (ip), vehicle: saline
[4] = dose: 100.0 mg/kg/injection, schedule: Q01DX001 (ip), vehicle: saline
[5] = dose: 200.0 mg/kg/injection, schedule: Q01DX001 (ip), vehicle: saline
[6] = dose: 400.0 mg/kg/injection, schedule: Q01DX001 (ip), vehicle: saline
[7] = dose: 100.0 mg/kg/injection, schedule: Q01DX009 (ip), vehicle: saline with Tween-80
[8] = dose: 100.0 mg/kg/injection, schedule: Q04DX003 (ip), vehicle: saline with Tween-80
[9] = dose: 200.0 mg/kg/injection, schedule: Q01DX009 (ip), vehicle: saline with Tween-80
[10] = dose: 200.0 mg/kg/injection, schedule: Q04DX003 (ip), vehicle: saline with Tween-80
[11] = dose: 400.0 mg/kg/injection, schedule: Q01DX009 (ip), vehicle: saline with Tween-80
[12] = dose: 400.0 mg/kg/injection, schedule: Q04DX003 (ip), vehicle: saline with Tween-80
[13] = dose: 100.0 mg/kg/injection, schedule: Q04DX002 (ip), vehicle: Klucel (hydroxypropylcellulose) (HPC)
[14] = dose: 200.0 mg/kg/injection, schedule: Q04DX002 (ip), vehicle: Klucel (hydroxypropylcellulose) (HPC)
[15] = dose: 400.0 mg/kg/injection, schedule: Q04DX002 (ip), vehicle: Klucel (hydroxypropylcellulose) (HPC)
[16] = dose: 100.0 mg/kg/injection, schedule: Q01DX009 (ip), vehicle: Klucel (hydroxypropylcellulose) (HPC)
[17] = dose: 200.0 mg/kg/injection, schedule: Q01DX009 (ip), vehicle: Klucel (hydroxypropylcellulose) (HPC)

Measured: T/C

OCCN1CCN(CC/C=C2\c3ccccc3Sc3ccc(Cl)cc32)CC1
inactive: dose: 0.39 mg/kg/injection, schedule: Q03HX024 (ip), vehicle: saline 100 % of control | dose: 0.78 mg/kg/injection, schedule: Q03HX024 (ip), vehicle: saline 94 % of control | dose: 1.0 mg/kg/injection, schedule: Q01DX009 (ip), vehicle: saline 101 % of control and 87 % of control | dose: 1.56 mg/kg/injection, schedule: Q03HX024 (ip), vehicle: saline 107 % of control | dose: 2.0 mg/kg/injection, schedule: Q01DX009 (ip), vehicle: saline 95 % of control and 103 % of control | dose: 3.12 mg/kg/injection, schedule: Q01DX009 (ip), vehicle: saline 104 % of control | dose: 3.12 mg/kg/injection, schedule: Q03HX024 (ip), vehicle: saline 111 % of control | dose: 3.12 mg/kg/injection, schedule: Q04DX003 (ip), vehicle: saline 106 % of control | dose: 4.0 mg/kg/injection, schedule: Q01DX009 (ip), vehicle: saline 100 % of control and 106 % of control | dose: 6.25 mg/kg/injection, schedule: Q01DX009 (ip), vehicle: saline 120 % of control | dose: 6.25 mg/kg/injection, schedule: Q04DX003 (ip), vehicle: saline 100 % of control and 105 % of control | dose: 8.0 mg/kg/injection, schedule: Q01DX009 (ip), vehicle: saline 106 % of control and 115 % of control | dose: 9.37 mg/kg/injection, schedule: Q01DX001 (ip), vehicle: saline 106 % of control | dose: 12.5 mg/kg/injection, schedule: Q01DX009 (ip), vehicle: saline 120 % of control and 86 % of control | dose: 12.5 mg/kg/injection, schedule: Q04DX003 (ip), vehicle: saline 108 % of control and 116 % of control | dose: 16.0 mg/kg/injection, schedule: Q01DX009 (ip), vehicle: saline 115 % of control and 89 % of control | dose: 18.75 mg/kg/injection, schedule: Q01DX001 (ip), vehicle: saline 100 % of control | dose: 20.0 mg/kg/injection, schedule: Q04DX003 (ip), vehicle: saline 115 % of control | [1] 124 % of control | [2] 119 % of control | dose: 37.5 mg/kg/injection, schedule: Q01DX001 (ip), vehicle: saline 105 % of control | dose: 40.0 mg/kg/injection, schedule: Q04DX003 (ip), vehicle: saline 105 % of control | [3] 105 % of control

O=[N+]([O-])c1ccc(Cl)cc1/C=N/NC(=S)Nc1cccc2cccnc12
inactive: [4] 100 % of control | [5] 103 % of control | [6] 100 % of control

CCCCCCC(C)O[Si](C)c1ccc(C)cc1 (centres undefined)
inactive: [7] 103 % of control | [8] 113 % of control | [9] 90 % of control | [10] 97 % of control | [11] 97 % of control | [12] 87 % of control

C(=NC(c1ccccc1)(c1ccccc1)c1ccccc1)=NC(c1ccccc1)(c1ccccc1)c1ccccc1
inactive: dose: 25.0 mg/kg/injection, schedule: Q01DX009 (ip), vehicle: gum acacia 88 % of control | dose: 50.0 mg/kg/injection, schedule: Q01DX009 (ip), vehicle: gum acacia 90 % of control | dose: 100.0 mg/kg/injection, schedule: Q04DX003 (ip), vehicle: gum acacia 93 % of control | dose: 200.0 mg/kg/injection, schedule: Q01DX009 (ip), vehicle: gum acacia 88 % of control | dose: 200.0 mg/kg/injection, schedule: Q04DX003 (ip), vehicle: gum acacia 91 % of control | dose: 400.0 mg/kg/injection, schedule: Q01DX009 (ip), vehicle: gum acacia 88 % of control | dose: 400.0 mg/kg/injection, schedule: Q04DX003 (ip), vehicle: gum acacia 86 % of control

CNc1cccc2c1C(=O)c1ccccc1C2=O
inactive: [13] 96 % of control | [14] 92 % of control | [15] 96 % of control

CCN(CC)CCOC(=O)c1cc2ccccc2s1
inactive: [4] 94 % of control | [5] 102 % of control | [6] 96 % of control

O=C(CCN1CCCCC1)c1cccc([N+](=O)[O-])c1
inactive: dose: 12.0 mg/kg/injection, schedule: Q04DX003 (ip), vehicle: saline 93 % of control | [1] 111 % of control | [2] 101 % of control | dose: 50.0 mg/kg/injection, schedule: Q01DX009 (ip), vehicle: saline 103 % of control | dose: 50.0 mg/kg/injection, schedule: Q04DX003 (ip), vehicle: saline 95 % of control | dose: 100.0 mg/kg/injection, schedule: Q01DX009 (ip), vehicle: saline 103 % of control

CSCC(NC(=O)OCc1ccccc1)C(=O)O (centres undefined)
inactive: dose: 50.0 mg/kg/injection, schedule: Q01DX009 (ip), vehicle: saline with Tween-80 111 % of control | [7] 111 % of control | [9] 101 % of control

COc1ccc(OC(=O)Nc2cc([N+](=O)[O-])ccc2F)cc1
inactive: [16] 106 % of control | [17] 93 % of control | dose: 400.0 mg/kg/injection, schedule: Q01DX009 (ip), vehicle: Klucel (hydroxypropylcellulose) (HPC) 93 % of control

CCCCCCCCCC/C=N\N=C(N)N
inactive: dose: 15.0 mg/kg/injection, schedule: Q01DX Z (ip), vehicle: other 107 % of control | dose: 15.0 mg/kg/injection, schedule: Q01DX Z (oral), vehicle: carboxymethylcellulose (CMC) 96 % of control | dose: 30.0 mg/kg/injection, schedule: Q01DX Z (ip), vehicle: other 97 % of control | dose: 30.0 mg/kg/injection, schedule: Q01DX Z (oral), vehicle: carboxymethylcellulose (CMC) 103 % of control | dose: 60.0 mg/kg/injection, schedule: Q01DX Z (oral), vehicle: carboxymethylcellulose (CMC) 96 % of control | dose: 120.0 mg/kg/injection, schedule: Q01DX Z (oral), vehicle: carboxymethylcellulose (CMC) 103 % of control

Cc1ccc(S(=O)(=O)c2ccccc2)cc1
inactive: dose: 100.0 mg/kg/injection, schedule: Q04DX003 (ip), vehicle: saline 103 % of control | dose: 200.0 mg/kg/injection, schedule: Q04DX003 (ip), vehicle: saline 91 % of control | dose: 400.0 mg/kg/injection, schedule: Q04DX003 (ip), vehicle: saline 95 % of control

CCCCCCP(=O)(CCCCCC)C1CCCCC1
inactive: dose: 25.0 mg/kg/injection, schedule: Q01DX001 (ip), vehicle: Klucel (hydroxypropylcellulose) (HPC) 94 % of control | dose: 50.0 mg/kg/injection, schedule: Q01DX001 (ip), vehicle: Klucel (hydroxypropylcellulose) (HPC) 88 % of control | dose: 100.0 mg/kg/injection, schedule: Q01DX001 (ip), vehicle: Klucel (hydroxypropylcellulose) (HPC) 102 % of control | dose: 200.0 mg/kg/injection, schedule: Q01DX001 (ip), vehicle: saline with Tween-80 97 % of control

CC(=O)O[C@H]1CC[C@@]2(C)[C@@H](CC[C@@H]3[C@@H]2CC[C@]2(C)[C@@H](C(C)=O)CC[C@@H]32)C1
inactive: [13] 96 % of control | [14] 96 % of control | [15] 96 % of control

CCCCSCCC
inactive: [7] 98 % of control | [8] 117 % of control | [9] 98 % of control | [10] 96 % of control | [11] 94 % of control | [12] 94 % of control

CCC(CCl)NC(CC(C)C)CC(C)C (centres undefined)
inactive: [3] 93 % of control and 98 % of control | dose: 150.0 mg/kg/injection, schedule: Q01DX001 (ip), vehicle: saline 96 % of control and 107 % of control

Cc1nc(N)[nH]c(=O)c1CCCCc1ccccc1
inactive: dose: 50.0 mg/kg/injection, schedule: Q01DX009 (ip), vehicle: Klucel (hydroxypropylcellulose) (HPC) 98 % of control | [16] 102 % of control | [17] 95 % of control

CC1(c2ccc(Cl)cc2)NC(=O)N(CC(N)=O)C1=O (centres undefined)
inactive: [8] 105 % of control | [12] 122 % of control

CN(C)N=Nc1nn(C2OC(CO)C(O)C2O)cc1C(N)=O (centres undefined)
inactive: dose: 100.0 mg/kg/injection, schedule: Q01DX005 (ip), vehicle: saline 121 % of control | dose: 200.0 mg/kg/injection, schedule: Q01DX005 (ip), vehicle: saline 113 % of control

COC1OC(CO)C2OC(C)(C)OC2C1O (centres undefined)
inactive: dose: 100.0 mg/kg/injection, schedule: Q04DX002 (ip), vehicle: saline 93 % of control | dose: 200.0 mg/kg/injection, schedule: Q04DX002 (ip), vehicle: saline 101 % of control | dose: 400.0 mg/kg/injection, schedule: Q04DX002 (ip), vehicle: saline 104 % of control

CCCCCCCCCCOc1ccc2ccccc2c1
inactive: [8] 100 % of control | [10] 94 % of control | [12] 91 % of control
